Source: patent US5155126A, “Treatment of central nervous system disorders with pyrazole, pyrrole and triazole angiotensin-II receptor antagonists” (E. I. du Pont de Nemours and Company, priority 1991, dated 1992)
“And” between values parts separate entries of the source, which are not always exact repeats. Equal entries are not always repeated. “Also recorded” adds a separate entry of the source. One block for each molecule: values may come before it.

How the values were obtained:
[1] = tested on: potassium-stimulated release of ACh in entorhinal cortex; details: in vitro, entorhinal cortex from rat brain; in words; cited from earlier work
[2] = tested on: retention of a passive avoidance response; details: injected into dorsal neostriatum; in words; cited from earlier work
[3] = tested on: AII binding sites in the brain; assay: Binding of AII antagonists to sections of brain slices; details: in words
[4] = tested on: renin-induced disruption of passive avoidance retention; assay: Renin-disrupted passive avoidance retention; type: in vivo, male Sprague-Dawley rats; details: for effect on memory / renin-induced amnesia: IVT, in words
Experimental: Experimentally naive male Sprague-Dawley rats […] (Charles River Breeding Laboratories, Kingston, N.Y.), weighing between 175 to 200 gm were used. The animals were housed four per cage (45.0 L × 20.0 H × 26.0 W cm) with free access to food and water. They were maintained on a 12 h light/dark cycle (lights on 0600 h) and at a room temperature of 22±1° C. with relative humidity of 50±10%.
The experimental sessions were conducted in a two-compartment passive avoidance box. One compartment, made of clear plastic with a perforated clear plastic floor, measured 21(L)=24.5(H)=17(W) cm and was illuminated with a 60 watt incandescent light bulb placed 36 cm above the floor. The other compartment, made of black plastic, measured 30.5 (L)×20.3 (H)×21.5 (W) cm with a floor made of 4 mm stainless steel rods spaced 1.2 cm apart. A grid floor shocker (Coulbourn Instruments) was connected to the steel rods and provided scrambled footshock. The two compartments were separated by a solenoid-operated slide door (Lafayette Instrument Co., Lafayette, Ind.). An electronic counter (Coulbourn Instruments), triggered by the opening or closing of the slide door, recorded acquisition and retention latencies (latencies were defined as the time it took an animal to enter the dark compartment).
Passive avoidance training began by placing the rat into the clear compartment of the two-compartment passive avoidance box. Following a 10 sec delay, the slide door to the dark compartment was raised. Once the rat moved completely into the dark compartment (all four paws on the shock grid floor) the slide door was lowered, and after a 10 sec delay, a 1.0 mA shock was applied to the grid floor for three sec. A second three s shock was delivered after an additional 10 sec delay. The rats were immediately removed from the dark compartment and returned to their home cage. A retention test was given 24 h later. It proceeded in the same manner as the training session except that no shock was applied to the grid floor when the rats were provided access to the dark compartment for a maximum of 300 sec.
All drugs were administered IVT 60 minutes prior to acquisition training in a volume of 5 μL. Doses are expressed as the free base weight of each compound.

[5] = tested on: AII-1 receptor; assay: AII-1 receptor antagonism (statement); details: in words
[6] = tested on: memory of previously learned tasks; anticholinergic effect on performance; details: in words; cited from earlier work
[7] = tested on: AII-2 receptor (AII receptor subtype-2); details: in words; cited from earlier work
[8] = tested on: scopolamine-induced disruption of performance; details: daily treatment; in words; cited from earlier work
[9] = tested on: avoidance learning; details: renin into lateral ventricle; captopril IVT prior to renin; in words; cited from earlier work
[10] = tested on: light/dark habituation performance; details: subchronic treatment; in words; cited from earlier work
[11] = tested on: scopolamine-induced PA amnesia; details: three times per day at 1, 3 and 10 mg/kg PO; in words; cited from earlier work
[12] = tested on: scopolamine-induced impairment of eight arm radial maze performance; details: 3 mg/kg IP; in words; cited from earlier work
[13] = tested on: uphill avoidance; details: acute 30 mg/kg PO; in words; cited from earlier work
[14] = tested on: ACh in the striatum and hypothalamus; details: acute or repeated administration; in words; cited from earlier work
[15] = tested on: AII in cerebrospinal fluid; details: after renin IVT; increased from 40; cited from earlier work

Molecule: [1-sarcosine, 8-threonine]angiotensin-II
effect on potassium-stimulated release of ACh [1]: antagonized

Molecule: NC(=O)[C@@H]1CCCN1C(=O)[C@H](Cc1cnc[nH]1)NC(=O)[C@@H]1CCC(=O)N1 [thyrotropin releasing hormone]
effect on retention of a PA response [2]: no effect

Molecule: Cc1cc(Cn2cnc3c2CC(C(=O)O)N(C(=O)C(c2ccccc2)c2ccccc2)C3)ccc1N (stereo not shown) [EXP655, 1-(4-amino-3-methylphenyl)methyl-5-diphenylacetyl-4,5,6,7-tetrahydro-1H-imidazo[4,5-c]pyridine-6-carboxylic acid]
sensitivity of AII binding sites in brain [3]: the majority of binding sites in the brain are DTT-insensitive and EXP655-sensitive
effect on memory / renin-induced amnesia [4]: less effective in preventing amnesia

AII-1 receptor antagonist activity [5]: AII-1 receptor antagonists
Molecule: CCCc1nc(C(F)(F)F)c(C(=O)O)n1Cc1ccc(-c2ccccc2-c2nnn[nH]2)cc1 [Compound C, 2-n-propyl-1-[(2'-(1H-tetrazol-5-yl)biphenyl-4-yl)methyl]-4-trifluoromethylimidazole-5-carboxylic acid]
effect on memory / renin-induced amnesia [4]: protected against amnesia

Molecule: NCCCC[C@H](OP(=O)(O)CCCCc1ccccc1)C(=O)N1CCC[C@H]1C(=O)O [SQ 29852]
effect on anticholinergic effect on performance [6]: ameliorate, at least in part
effect on memory of previously learned tasks [6]: protective effects on memory of previously learned tasks

Molecule: lysine-8-vasopressin
effect on retention of a PA response [2]: no effect

AII-1 receptor antagonist activity [5]: AII-1 receptor antagonists
Molecule: CCCc1nc(C(F)(F)F)c(CO)n1Cc1ccc(-c2ccccc2-c2nnn[nH]2)cc1 [Compound D, 2-n-propyl-5-hydroxymethyl-1-[(2'-(1H-tetrazol-5-yl)biphenyl-4-yl)methyl]-4-trifluoromethylimidazole]
effect on memory / renin-induced amnesia [4]: protected against amnesia

Molecule: O[C@H](CS)[C@H](O)CS (racemic) [DTT, dithiothreitol]
inactivation of AII-2 receptor by DTT [7]: resistant to DTT inactivation

Molecule: C[C@H](CS)C(=O)N1CCC[C@H]1C(=O)O [captopril]
scopolamine-induced disruption of performance [8]: prevented
effect on avoidance learning [9]: prevented the renin-induced avoidance disruption
rate of acquisition of light/dark habituation performance [10]: increased the rate of acquisition
effect on memory / renin-induced amnesia [4]: prevented

Molecule: CCOC(=O)C(CCc1ccccc1)NC(C)C(=O)N1CC2(CC3CCC2CC3)CC1C(=O)O (stereo not shown) [Hoe 288]
effect on scopolamine-induced PA amnesia [11]: partially reversed the amnesia
effect of muscarinic receptor blockade on performance [12]: partially antagonized the effects of muscarinic receptor blockade
performance during retention testing, uphill avoidance [13]: improved performance during retention testing
change of ACh in striatum and hypothalamus [14]: significant decrease in ACh

Molecule: AII: Angiotensin-II, a circulating hormone thought to act as a neuropeptide in the CNS (DRVYIHPF; Angiotensin-2; UniProt P01019 25-32, looked up)
effect on potassium-stimulated release of ACh [1]: can inhibit the release of ACh
effect on retention of a PA response [2]: disruption in retention of a PA response

Molecule: AI: printed "AI, but not AI" in b14 (DRVYIHPFHL; Angiotensin-1; UniProt P01019 25-34, looked up)
effect on potassium-stimulated release of ACh [1]: reduced potassium-stimulated release of ACh without effects on basal levels

B1: renin: Renin (Sigma Chemicals), a stimulator of endogenous AII biosynthesis (protein, UniProt P00797 67-406, looked up)
Renin: LTLGNTTSSVILTNYMDTQYYGEIGIGTPPQTFKVVFDTGSSNVWVPSSKCSRLYTACVYHKLFDASDSSSYKHNGTELTLRYSTGTVSGFLSQDIITVGGITVTQMFGEVTEMPALPFMLAEFDGVVGMGFIEQAIGRVTPIFDNIISQGVLKEDVFSFYYNRDSENSQSLGGQIVLGGSDPQHYEGNFHYINLIKTGVWQIQMKGVSVGSSTLLCEDGCLALVDTGASYISGSTSSIEKLMEALGAKKRLFDYVVKCNEGPTLPDISFHLGGKEYTLTSADYVFQESYSSKKLCTLAIHAMDIPPPTGPTWALGATFIRKFYTEFDRRNNRIGFALAR
AII in cerebrospinal fluid [15]: about 5000 fmol per mL
effect on avoidance learning [9]: disruption of avoidance learning
effect on memory / renin-induced amnesia [4]: produces memory deficit; also recorded: dose-related amnesia
Median Retention Latency ([4]; renin 1.0 μg/5 μL IVT alone): 48 s and 32 s and 27 s
Median Retention Latency ([4]; renin 5.0 μg/5 μL IVT alone): 17 s
